The test system of one data set is palmar fibroblasts. In words: Culture force monitor: isometric force contraction of collagen gels seeded with palmar fibroblasts. It counts as cell-based, human. To be noted: 24 h; for isometric force contraction of palmar fibroblasts: 1 ng/ml, versus PS alone, FIG. 12 / FIG. 22. From the text: The culture force monitor (CFM) utilised and culture conditions are shown in FIGS. 3A to 3E: (A) Rectangular seeded collagen gels were cast and floated in medium, tethered between two flotation bars one of which is held stationary whilst the other is attached to a force transducer. (B) Cell-generated tensional forces in the collagen gel are detected by the force transducer, and live data are logged every 15 seconds providing a continuous output of force (dynes, […]) generated. (C) After 24 hour contraction, gels are harvested and processed for α-SMA mRNA, protein and immunofluorescence. (D) Cells were routinely seeded in gels with a high aspect-ratio collagen lattice, although low aspect-ratio lattices (E) were also used in experiments to compare effects of less strain on cell contractility. […]
Collagen gels seeded with palmar fibroblasts were cultured for 24 h with supernatants from AGE-(100 μg/ml) stimulated monocytes (M) in the absence or presence of anti TNF-α (10 μg/ml) and isometric force contraction quantified. Experiments were performed in duplicate. […]

The next data set relates to human monocytes. In words: TNF-α production by human monocytes (ELISA). It counts as cell-based. The procedure: LPS, a pathogen associated molecular pattern (PAMP) is shown as positive control.
The known receptors for S100A8 are the receptor for advanced glycation end products (RAGE) and the Toll-like receptors 2 and 4. Human monocytes at 1×10^5/ml were incubated in 10% FCS with human S100 A8 at 0.5 with the addition of either antibody to TLR4, TLR2 or isotype controls (not shown), or soluble RAGE (sRAGE)) over 14 hours. TNF-α levels were determined by ELISA.
It is more difficult to show in vitro that HMGB1 also acts on monocytes to lead to pro-inflammatory cytokine release. […] Our experiment, the results of which are shown in FIG. 18, involved human monocytes at 1×10^5/ml incubated in 10% FCS with HMGB1 or LPS alone or together at concentrations shown over 14 hours. TNF-α levels were determined by ELISA.

Data set [1] has as its system non-palmar dermal fibroblasts. In words: Culture force monitor: contraction rate of non-palmar dermal fibroblasts. The settings on record: 1 ng/ml; 24 h; one patient; FIG. 22. It counts as cell-based, human. The text has this:
The culture force monitor (CFM) utilised and culture conditions are shown in FIGS. 3A to 3E: (A) Rectangular seeded collagen gels were cast and floated in medium, tethered between two flotation bars one of which is held stationary whilst the other is attached to a force transducer. (B) Cell-generated tensional forces in the collagen gel are detected by the force transducer, and live data are logged every 15 seconds providing a continuous output of force (dynes, […]) generated. (C) After 24 hour contraction, gels are harvested and processed for α-SMA mRNA, protein and immunofluorescence. (D) Cells were routinely seeded in gels with a high aspect-ratio collagen lattice, although low aspect-ratio lattices (E) were also used in experiments to compare effects of less strain on cell contractility.
We then compared the effect of TNF-α on the rate of contraction on palmar skin and non-palmar skin from a Dupuytren's patient. Collagen gels seeded with palmar fibroblasts were cultured for 24 h in the absence (PS or NPS alone) or presence of TNF-α (1 ng/ml). Data are shown as +/−SD from triplicate experiments using cells from 3 patients for palmar skin and one patient non-palmar skin (**p=0.0012, ns=not significant). […]

For data set [2] the following is noted: cited from earlier work.
Another data set has as its system murine bone marrow cells. In words: TNF-α production by murine bone marrow cells (wild type, TLR4-/-, MyD88-/-) by ELISA. In kind it is cell-based. To be noted: TLR4-/- and MyD88-/- mice, FIG. 17. Here is the method:
In FIG. 17, TNF-α produced by murine bone marrow cells of wild type, TLR4^−/− and MyD88^−/− mice on exposure to murine S100A8 were measured by ELISA.

[3] abbreviates: exposure to alarmin over tested range, FIG. 15.
[4] abbreviates: phase III clinical trial, Hurst et al 2009.

With AGEs, the “palmar fibroblast contraction with supernatants from AGE-stimulated monocytes” value in the data set on palmar fibroblasts (AGE 100 μg/ml stimulated monocyte supernatant, absence or presence of anti TNF-α 10 μg/ml, FIG. 20) is reported as “stimulated palmar fibroblast contraction in a TNF-α dependent manner”. Further, the “contractility of palmar dermal fibroblasts” value in the data set with palmar fibroblasts (AGEs-BSA 150 μg/ml, FIG. 14) is listed as “not affected”.
On to S100A8: Alarmin (DAMP) protein, human, for which the “TNF-α production by human monocytes” value with human monocytes (setting [3]) is listed as “produced TNF-α in a dose dependent manner”. Also, in the data set on human monocytes (human S100 A8 at 0.5 with antibody to TLR4, TLR2 or soluble RAGE, 14 hours, FIG. 16), the “receptor mediating TNF-α production by human monocytes” value is “TLR-4 and not RAGE or TLR-2”. In the data set with human monocytes (within the tested range, FIG. 15), the “relative activity in TNF-α production by human monocytes” value was “more active than S100A9 and S100A12”.
For “TGF-β1: cytokine that leads to development of the myofibroblast phenotype”, the palmar fibroblast contractility entry with palmar fibroblasts (10 ng/ml, compared to untreated palmar fibroblasts, p=0.0001, FIG. 12) is listed as “significant increased palmar fibroblast contractility”. Moreover, the “contractility of human palmar fibroblasts in collagen lattice under isometric conditions” value with palmar fibroblasts (TGF-β1, cells from 3 patients, FIG. 21) is reported as “enhanced contractility”.
For TNF-α, the “isometric force contraction of palmar fibroblasts” value with palmar fibroblasts is given as “significantly enhanced contraction”. Besides, the “contraction rate of non-palmar dermal fibroblasts” value in data set [1] is recorded as “no change, or a slight reduction, in contraction rate”.
Regarding “bacterial collagenase: bacterial (Clostridial) collagenase for enzymatic fasciotomy, FDA approved as Xiaflex”, the “recurrence rates in patients with PIPJ contractures” value in data set [2] (2 years follow-up, Badalamente et al 2007) is given as 57%. In data set [2] (setting [4]), the “MCPJ contractures effectively treated (to within 5° of full extension)” value was 77% and the “PIPJ contractures effectively treated (to within 5° of full extension)” value is recorded as 40%.

B1: murine S100A8: murine Alarmin S100A8 (protein, UniProt P27005 2-89, looked up)
Protein S100-A8: PSELEKALSNLIDVYHNYSNIQGNHHALYKNDFKKMVTTECPQFVQNINIENLFRELDINSDNAINFEEFLAMVIKVGVASHKDSHKE
Turning to B1, in the data set with murine bone marrow cells, the “receptor/signalling dependence of TNF-α production” value is “predominantly binds to TLR-4 and that the intracellular signalling leading to TNF-α production by monocytes is entirely dependent on adaptor protein MyD88”.

B2: S100A9: Alarmin (DAMP) protein (protein, UniProt P06702 1-114, looked up)
Protein S100-A9: MTCKMSQLERNIETIINTFHQYSVKLGHPDTLNQGEFKELVRKDLQNFLKKENKNEKVIEHIMEDLDTNADKQLSFEEFIMLMARLTWASHEKMHEGDEGPGHHHKPGLGEGTP
With B2, the “TNF-α production by human monocytes” value with human monocytes (setting [3]) is “to some extent”.

B3: HMGB1: high mobility group box protein, an Alarmin (DAMP) (protein, UniProt P09429 1-215, looked up)
High mobility group protein B1: MGKGDPKKPRGKMSSYAFFVQTCREEHKKKHPDASVNFSEFSKKCSERWKTMSAKEKGKFEDMAKADKARYEREMKTYIPPKGETKKKFKDPNAPKRPPSAFFLFCSEYRPKIKGEHPGLSIGDVAKKLGEMWNNTAADDKQPYEKKAAKLKEKYEKDIAAYRAKGKPDAAKKGVVKAEKSKKKKEEEEDEEDEEDEEEEEDEEDEDEEEDDDDE
As for B3, in the data set with palmar fibroblasts, the “isometric force contraction of palmar fibroblasts” value is “trend towards increased contraction resulting from HMGB1, this was not statistically significant”. The “TNF-α production by human monocytes” value in the data set with human monocytes (HMGB1 alone, 14 hours, FIG. 18) is “does not stimulate TNF-α production by monocytes”; in the data set on human monocytes (HMGB1 together with LPS, 14 hours, FIG. 18), “active in combination with LPS”.
